Data reported in PubChem BioAssay (NCI).
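Interpolation was linear, between the two tested concentrations surrounding the appropriate level; five concentrations were tested over 48 hours in 96-well plates. The concentration for 50% growth inhibition is given as GI50. TGI is the concentration that stops growth completely.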

Key:
Assay in all cases: NCI-60 cell line screen, 48 h
DU-145 prostate = system: DU-145 prostate
MDA-MB-231 breast = system: MDA-MB-231 breast
MDA-MB-435 = system: MDA-MB-435
NCI-H460 lung = system: NCI-H460 lung
OVCAR-3 ovarian = system: OVCAR-3 ovarian
SK-MEL-2 melanoma = system: SK-MEL-2 melanoma
SK-MEL-28 melanoma = system: SK-MEL-28 melanoma
SK-OV-3 ovarian = system: SK-OV-3 ovarian
SN12C renal = system: SN12C renal
UACC-62 melanoma = system: UACC-62 melanoma

For `COC(=O)[C@@H]1O[C@]12[C@@H](CO[Si](C)(C)C(C)(C)C)O[C@@H](n1cc(C)c(=O)[nH]c1=O)[C@@H]2O[Si](C)(C)C(C)(C)C`, the TGI (DU-145 prostate) was 39 µM, the TGI (MDA-MB-231 breast) was 54.8 µM and the TGI (MDA-MB-435) was 59.2 µM. The TGI (NCI-H460 lung) was > 100 µM, the TGI (OVCAR-3 ovarian) was 31.1 µM and the TGI (SK-MEL-2 melanoma) was 30.1 µM. The TGI (SK-MEL-28 melanoma) was 38.5 µM, the TGI (SK-OV-3 ovarian) was > 100 µM and the TGI (SN12C renal) was 27.9 µM. It also gave a TGI (UACC-62 melanoma) of 34.8 µM.
`c1cc2ccc1CNCCN1CCNCc3ccc(cc3)Oc3ccc(cc3)CNCCN(CCNCc3ccc(cc3)O2)CCNCc2ccc(cc2)Oc2ccc(cc2)CNCC1` showed a GI50 (DU-145 prostate) of 1.46 µM, a TGI (DU-145 prostate) of 2.83 µM and a GI50 (MDA-MB-231 breast) of 0.521 µM. It also gave a TGI (MDA-MB-231 breast) of 1.75 µM, a GI50 (MDA-MB-435) of 1.36 µM and a TGI (MDA-MB-435) of 2.7 µM. For the same molecule, the GI50 (NCI-H460 lung) was 1.71 µM, the TGI (NCI-H460 lung) was 3.27 µM and the GI50 (OVCAR-3 ovarian) was 1.65 µM. It also gave a TGI (OVCAR-3 ovarian) of 3.05 µM, a GI50 (SK-MEL-2 melanoma) of 1.6 µM and a TGI (SK-MEL-2 melanoma) of 3.14 µM. It also gave a GI50 (SK-MEL-28 melanoma) of 1.75 µM, a TGI (SK-MEL-28 melanoma) of 3.21 µM and a GI50 (SK-OV-3 ovarian) of 1.72 µM. It also gave a TGI (SK-OV-3 ovarian) of 3.15 µM, a GI50 (SN12C renal) of 0.446 µM and a TGI (SN12C renal) of 1.57 µM. It also gave a GI50 (UACC-62 melanoma) of 1.66 µM and a TGI (UACC-62 melanoma) of 3.1 µM.
